This passage reports IC50 results from patent US8471005B2 (Cephalon, Inc., priority 2008, dated 2013).

Where two headings read alike, the source gives them in different places.

The target of experiment [1] is T1, ALK (Homo sapiens, UniProt Q9UM73).
T1 construct: host or cells: baculovirus expression system
As to the kind of experiment: ALK Kinase Assay (ELISA/TRF, PLC-γ substrate). The class given is biochemical. The settings on record: read-out: ALK Potency. In short, it runs like this:
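IC50 values derive from percent inhibition plotted against log10 compound concentration and fitted to a variable-slope sigmoidal equation. The underlying reaction used 30 ng/ml ALK acting on immobilized PLC-γ (10 μg/mL in TBS) at 37° C for 15 minutes, read with Eu-N1 PT66 antibody.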

Experiment [2] has as its target T2, JAK2 (Homo sapiens, UniProt O60674).
T2 construct: host or cells: baculovirus expression system
The experiment can be described thus: Recombinant Human JAK2 Kinase Assay (TRF). In kind it is biochemical. The settings on record: read-out: JAK2 Potency. The method in brief: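 Baculovirus-expressed JAK2 (15 ng/ml) phosphorylated a biotinylated 15-mer peptide captured on Neutravidin, in 20 mM HEPES pH 7.2, 0.2 μM ATP, 1 mM MnCl2, 0.1% BSA, 2.5% DMSO final, 20 min at room temperature. Phosphoproduct detected by time-resolved fluorescence with Eu-N1-labelled PY100 antibody.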

Setting [3] is: ALK kinase inhibition, 1 μM ATP.
The mark [4] stands for this setting: JAK2 kinase inhibition, 0.2 μM ATP.

T1 sequence (Q9UM73 19-1620): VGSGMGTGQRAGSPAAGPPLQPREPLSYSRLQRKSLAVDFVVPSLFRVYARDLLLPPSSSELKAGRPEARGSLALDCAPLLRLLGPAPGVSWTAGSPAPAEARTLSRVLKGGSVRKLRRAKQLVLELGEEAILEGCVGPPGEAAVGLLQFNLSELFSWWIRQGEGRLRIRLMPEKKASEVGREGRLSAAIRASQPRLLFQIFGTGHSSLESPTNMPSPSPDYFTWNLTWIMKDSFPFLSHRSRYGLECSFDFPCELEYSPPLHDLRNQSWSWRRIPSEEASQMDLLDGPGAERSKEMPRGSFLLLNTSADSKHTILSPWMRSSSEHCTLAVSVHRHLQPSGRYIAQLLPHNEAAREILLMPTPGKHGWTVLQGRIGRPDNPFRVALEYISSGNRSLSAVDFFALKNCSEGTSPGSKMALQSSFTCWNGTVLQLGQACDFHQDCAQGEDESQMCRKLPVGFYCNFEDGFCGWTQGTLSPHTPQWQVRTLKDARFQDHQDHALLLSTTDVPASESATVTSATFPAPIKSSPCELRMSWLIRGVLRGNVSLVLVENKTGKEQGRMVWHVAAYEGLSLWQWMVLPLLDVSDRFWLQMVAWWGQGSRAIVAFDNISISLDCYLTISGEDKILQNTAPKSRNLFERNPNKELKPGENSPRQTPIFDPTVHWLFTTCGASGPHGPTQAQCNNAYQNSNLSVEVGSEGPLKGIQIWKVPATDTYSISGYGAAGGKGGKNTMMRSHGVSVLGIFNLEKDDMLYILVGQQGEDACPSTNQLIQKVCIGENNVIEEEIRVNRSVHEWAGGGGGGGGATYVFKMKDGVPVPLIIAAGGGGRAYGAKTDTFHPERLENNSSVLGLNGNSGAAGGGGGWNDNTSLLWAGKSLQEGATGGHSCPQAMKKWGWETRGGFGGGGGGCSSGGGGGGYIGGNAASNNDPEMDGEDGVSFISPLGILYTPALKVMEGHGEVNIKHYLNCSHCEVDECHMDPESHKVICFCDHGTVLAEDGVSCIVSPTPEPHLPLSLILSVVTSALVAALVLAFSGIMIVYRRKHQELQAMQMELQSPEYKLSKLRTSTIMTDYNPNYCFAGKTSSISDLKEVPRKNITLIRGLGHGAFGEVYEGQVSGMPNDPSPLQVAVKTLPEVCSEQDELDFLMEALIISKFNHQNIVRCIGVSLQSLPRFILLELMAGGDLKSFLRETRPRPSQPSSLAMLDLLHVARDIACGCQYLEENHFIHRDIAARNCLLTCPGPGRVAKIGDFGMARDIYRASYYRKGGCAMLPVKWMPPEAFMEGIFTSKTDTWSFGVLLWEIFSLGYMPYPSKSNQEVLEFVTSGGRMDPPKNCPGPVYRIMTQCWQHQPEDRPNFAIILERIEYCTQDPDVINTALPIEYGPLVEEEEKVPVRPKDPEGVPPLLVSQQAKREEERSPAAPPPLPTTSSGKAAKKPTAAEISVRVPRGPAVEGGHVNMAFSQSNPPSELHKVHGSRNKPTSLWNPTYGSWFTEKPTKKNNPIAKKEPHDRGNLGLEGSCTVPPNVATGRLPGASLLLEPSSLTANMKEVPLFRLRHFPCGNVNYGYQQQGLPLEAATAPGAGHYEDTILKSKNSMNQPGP
T2 sequence (O60674 whole entry): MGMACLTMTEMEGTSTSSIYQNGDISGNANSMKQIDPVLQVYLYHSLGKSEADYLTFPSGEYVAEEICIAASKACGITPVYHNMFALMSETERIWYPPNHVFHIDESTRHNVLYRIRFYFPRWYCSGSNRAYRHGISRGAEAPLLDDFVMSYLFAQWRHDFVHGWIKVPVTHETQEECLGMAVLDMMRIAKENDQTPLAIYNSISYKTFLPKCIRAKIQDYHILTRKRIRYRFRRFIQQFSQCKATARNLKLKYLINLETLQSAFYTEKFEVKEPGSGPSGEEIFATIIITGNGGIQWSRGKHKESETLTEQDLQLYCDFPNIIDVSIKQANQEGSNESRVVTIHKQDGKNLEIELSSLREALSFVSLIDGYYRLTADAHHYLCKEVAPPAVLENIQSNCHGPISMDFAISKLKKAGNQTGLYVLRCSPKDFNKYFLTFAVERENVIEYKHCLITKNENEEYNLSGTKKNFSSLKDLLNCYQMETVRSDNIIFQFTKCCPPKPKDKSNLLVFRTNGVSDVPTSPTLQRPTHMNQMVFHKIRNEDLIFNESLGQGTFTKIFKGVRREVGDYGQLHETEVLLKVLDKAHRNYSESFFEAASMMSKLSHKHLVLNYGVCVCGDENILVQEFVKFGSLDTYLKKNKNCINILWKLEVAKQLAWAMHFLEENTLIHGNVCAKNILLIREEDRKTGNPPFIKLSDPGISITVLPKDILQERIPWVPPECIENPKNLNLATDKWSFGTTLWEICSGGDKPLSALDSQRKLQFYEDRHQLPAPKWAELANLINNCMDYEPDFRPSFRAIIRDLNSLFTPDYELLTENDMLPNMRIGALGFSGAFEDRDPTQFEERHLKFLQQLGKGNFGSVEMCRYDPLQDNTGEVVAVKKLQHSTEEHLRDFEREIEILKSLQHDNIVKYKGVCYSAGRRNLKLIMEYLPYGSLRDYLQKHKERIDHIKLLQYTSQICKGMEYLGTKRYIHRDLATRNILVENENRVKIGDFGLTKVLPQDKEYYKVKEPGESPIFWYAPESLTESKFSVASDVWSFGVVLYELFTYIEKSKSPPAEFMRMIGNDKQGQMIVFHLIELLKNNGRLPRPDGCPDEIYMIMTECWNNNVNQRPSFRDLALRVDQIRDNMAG

For `CON=C1CCC(c2ccc(Nc3ncc4ccc(-c5cccc(S(=O)(=O)NC(C)(C)C)c5)n4n3)cc2)CC1` (centres unmarked) [Example 571, N-tert-Butyl-3-{2-[4-(4-methoxyimino-cyclohexyl)-phenylamino]-pyrrolo[2,1-f][1,2,4]triazin-7-yl}-benzenesulfonamide], the IC50 in experiment [1] (setting [3]) was more than 10000 nM; in experiment [2] (setting [4]) it was less than 100 nM.
For `COc1cc2c(cc1Nc1ncc3ccc(-c4ccccc4N(C)S(C)(=O)=O)n3n1)CCCC(N1CCOCC1)C2` (centres unmarked) [Example 993, N-{2-[2-(3-Methoxy-6-morpholin-4-yl-6,7,8,9-tetrahydro-5H-benzocyclohepten-2-ylamino)-pyrrolo[2,1-f][1,2,4]triazin-7-yl]-phenyl}-N-methyl-methanesulfonamide] the same measures were less than 100 nM and 100 to 1000 nM.
For `COc1cc(N2CCC(N3CCOCC3)CC2)ccc1Nc1ncc2ccc(-c3cccc4c3OCCO4)n2n1` [Example 546, [7-(2,3-Dihydro-1,4-benzodioxin-5-yl)-pyrrolo[2,1-f][1,2,4]triazin-2-yl]-[2-methoxy-4-(4-morpholin-4-yl-piperidin-1-yl)-phenyl]-amine], the IC50 in experiment [1] (setting [3]) and in experiment [2] (setting [4]) was less than 100 nM in each case.
Take `COc1cc(C2CCN(C[C@H](O)CO)CC2)ccc1Nc1ncc2ccc(-c3ccccc3N(C)S(C)(=O)=O)n2n1` [Example 769, N-[2-(2-{4-[1-((S)-2,3-Dihydroxy-propyl)-piperidin-4-yl]-2-methoxy-phenylamino}-pyrrolo[2,1-f][1,2,4]triazin-7-yl)-phenyl]-N-methyl-methanesulfonamide]: the IC50 in experiment [1] (setting [3]) was less than 100 nM; in experiment [2] (setting [4]) it was 100 to 1000 nM.
For the compound “(7-Pyridin-3-yl-pyrrolo[2,1-f][1,2,4]triazin-2-yl)-[4-(2-pyrrolidin-1-yl-ethoxy)-phenyl]-amine [Example 126]”, the IC50 was 100 to 1000 nM in experiment [1] (ALK Kinase Inhibition) and less than 100 nM in experiment [2] (JAK2 Kinase Inhibition).
Regarding `COc1ccccc1-c1ccc2cnc(C(N)=O)nn12` [Example 1495, 7-(2-Methoxy-phenyl)-pyrrolo[2,1-f][1,2,4]triazine-2-carboxylic acid amide], the IC50 in experiment [1] (ALK Kinase Inhibition) and in experiment [2] (JAK2 Kinase Inhibition) was more than 10000 nM in each case.
Regarding `COc1ccccc1-c1cc(Br)c2cnc(Nc3ccc(N4CCN(C)CC4)cc3)nn12` [Example 101, [5-Bromo-7-(2-methoxy-phenyl)-pyrrolo[2,1-f][1,2,4]triazin-2-yl]-[4-(4-methyl-piperazin-1-yl)-phenyl]-amine], the IC50 in experiment [1] (ALK Kinase Inhibition) and in experiment [2] (JAK2 Kinase Inhibition) was less than 100 nM each time.
`CCCS(=O)(=O)Nc1cccc(-c2ccc3cnc(Nc4ccc(N5CCN(C)CC5)cc4)nn23)c1` [Example 417, Propane-1-sulfonic acid (3-{2-[4-(4-methyl-piperazin-1-yl)-phenylamino]-pyrrolo[2,1-f][1,2,4]triazin-7-yl}-phenyl)-amide]: the IC50 in experiment [1] (ALK Kinase Inhibition) and in experiment [2] (JAK2 Kinase Inhibition) was less than 100 nM throughout.
As to `CN1CCN(c2cccc(Nc3ncc4ccc(-c5cccc(CCC#N)c5)n4n3)c2)CC1` [Example 1153, 3-(3-{2-[3-(4-Methyl-piperazin-1-yl)-phenylamino]-pyrrolo[2,1-f][1,2,4]triazin-7-yl}-phenyl)-propionitrile], the IC50 in experiment [1] (setting [3]) and in experiment [2] (setting [4]) was less than 100 nM throughout.
Turning to `COc1cc(CN2CCN(C[C@H](C)O)CC2)ccc1Nc1ncc2ccc(-c3ccccc3N(C)S(C)(=O)=O)n2n1` [Example 1224, N-[2-(2-{4-[4-((S)-2-Hydroxy-propyl)-piperazin-1-ylmethyl]-2-methoxy-phenylamino}-pyrrolo[2,1-f][1,2,4]triazin-7-yl)-phenyl]-N-methyl-methanesulfonamide], the IC50 is less than 100 nM in experiment [1] (setting [3]) and 1000 to 10000 nM in experiment [2] (setting [4]).
For `COc1cc(C2CCN(C[C@H](O)C(F)(F)F)CC2)ccc1Nc1ncc2ccc(-c3ccccc3N(C)S(C)(=O)=O)n2n1` [Example 804, N-[2-(2-{2-Methoxy-4-[1-((S)-3,3,3-trifluoro-2-hydroxy-propyl)-piperidin-4-yl]-phenylamino}-pyrrolo[2,1-f][1,2,4]triazin-7-yl)-phenyl]-N-methyl-methanesulfonamide] the same measures were less than 100 nM and 100 to 1000 nM.
Take `C[C@H](O)CN1CCN(c2cc([S@@+](C)[O-])c(Nc3ncc4ccc(-c5ccccc5N(C)S(C)(=O)=O)n4n3)cc2F)CC1` [Example 1484, (R,S)—N-[2-(2-{5-Fluoro-4-[4-((S)-2-hydroxy-propyl)-piperazin-1-yl]-2-methanesulfinyl-phenylamino}-pyrrolo[2,1-f][1,2,4]triazin-7-yl)-phenyl]-N-methyl-methanesulfonamide]: the IC50 in experiment [1] (ALK Kinase Inhibition) and in experiment [2] (JAK2 Kinase Inhibition) was less than 100 nM in each case.
For the compound `COc1ccccc1-c1ccc2cnc(Nc3ccc(C4CCN(CCO)CC4)cc3)nn12` [Example 668, 2-(4-{4-[7-(2-Methoxy-phenyl)-pyrrolo[2,1-f][1,2,4]triazin-2-ylamino]-phenyl}-piperidin-1-yl)-ethanol], the IC50 in experiment [1] (setting [3]) and in experiment [2] (setting [4]) was less than 100 nM each time.
On to `COc1ccc(Cl)cc1-c1ccc2cnc(Nc3ccc(C(=O)N4CCN(C)CC4)cc3)nn12` [Example 319, {4-[7-(5-Chloro-2-methoxy-phenyl)-pyrrolo[2,1-f][1,2,4]triazin-2-ylamino]-phenyl}-(4-methyl-piperazin-1-yl)-methanone], for which the IC50 was 100 to 1000 nM in experiment [1] (ALK Kinase Inhibition) and less than 100 nM in experiment [2] (JAK2 Kinase Inhibition).
For `O=C(NCCN1CCCC1)c1ccc(-c2ccc3cnc(Nc4ccc(N5CCOCC5)cc4)nn23)cc1` [Example 53, 4-[2-(4-Morpholin-4-yl-phenylamino)-pyrrolo[2,1-f][1,2,4]triazin-7-yl]-N-(2-pyrrolidin-1-yl-ethyl)-benzamide] the same measures were 100 to 1000 nM and less than 100 nM.
For `COc1cc([C@H]2CC[C@H](N3CCOCC3)CC2)ccc1Nc1ncc2ccc(-c3ccccc3N(C)S(C)(=O)=O)n2n1` [Example 1248, N-{2-[2-({2-methoxy-4-[trans-4-(morpholin-4-yl)cyclohexyl]phenyl}amino)pyrrolo[2,1-f][1,2,4]triazin-7-yl]phenyl}-N-methylmethanesulfonamide], the IC50 in experiment [1] (setting [3]) is less than 100 nM; in experiment [2] (setting [4]) it was 100 to 1000 nM.
For `C[C@H](O)CN1CCC(c2ccc(Nc3ncc4ccc(-c5cccc(NS(C)(=O)=O)c5)n4n3)cc2)CC1` [Example 957, N-[3-(2-{4-[1-((S)-2-Hydroxy-propyl)-piperidin-4-yl]-phenylamino}-pyrrolo[2,1-f][1,2,4]triazin-7-yl)-phenyl]-methanesulfonamide] the same measures were less than 100 nM and less than 100 nM.
In the case of `CN1CCN(CC2CCN(c3ccc(Nc4ncc5ccc(-c6cccc(S(=O)(=O)NC(C)(C)C)c6)n5n4)cc3)CC2)CC1` [Example 589, N-tert-Butyl-3-(2-{4-[4-(4-methyl-piperazin-1-ylmethyl)-piperidin-1-yl]-phenylamino}-pyrrolo[2,1-f][1,2,4]triazin-7-yl)-benzenesulfonamide], the IC50 in experiment [1] (setting [3]) and in experiment [2] (setting [4]) was less than 100 nM throughout.
With `CC(C)S(=O)(=O)c1ccc(-c2ccc3cnc(Nc4cccc(N5CCOCC5)c4)nn23)cc1` [Example 192, (3-Morpholin-4-yl-phenyl)-{7-[4-(propane-2-sulfonyl)-phenyl]-pyrrolo[2,1-f][1,2,4]triazin-2-yl}-amine], the IC50 is 1000 to 10000 nM in experiment [1] (ALK Kinase Inhibition) and less than 100 nM in experiment [2] (JAK2 Kinase Inhibition).
For `O=S(=O)(c1ccc(-c2ccc3cnc(Nc4ccc(N5CCOCC5)cc4)nn23)cc1)N1CCCC1` [Example 63, (4-Morpholin-4-yl-phenyl)-{7-[4-(pyrrolidine-1-sulfonyl)-phenyl]-pyrrolo[2,1-f][1,2,4]triazin-2-yl}-amine] the same measures were more than 10000 nM and less than 100 nM.
Take `CN1CCN(C(=O)C2CCN(c3ccc(Nc4ncc5ccc(-c6ccc(Cl)cc6O)n5n4)cc3)CC2)CC1` [Example 485, (1-{4-[7-(4-Chloro-2-hydroxy-phenyl)-pyrrolo[2,1-f][1,2,4]triazin-2-ylamino]-phenyl}-piperidin-4-yl)-(4-methyl-piperazin-1-yl)-methanone]: the IC50 in experiment [1] (setting [3]) was 100 to 1000 nM; in experiment [2] (setting [4]), less than 100 nM.
For `CC(=O)Nc1cccc(Nc2ncc3ccc(-c4cccc(N5CCCS5(=O)=O)c4)n3n2)c1` [Example 1508, N-[3-({7-[3-(1,1-Dioxido-1,2-thiazolidin-2-yl)phenyl]pyrrolo[2,1-f][1,2,4]triazin-2-yl}amino)phenyl]acetamide], the IC50 in experiment [1] (ALK Kinase Inhibition) was 1000 to 10000 nM; in experiment [2] (JAK2 Kinase Inhibition), less than 100 nM.
For `CN1CCN(c2ccc(Nc3ncc4ccc(-c5ccc(C(=O)N6CCOCC6)cc5)n4n3)cc2)CC1` [Example 19, (4-{2-[4-(4-Methyl-piperazin-1-yl)-phenylamino]-pyrrolo[2,1-f][1,2,4]triazin-7-yl}-phenyl)-morpholin-4-yl-methanone] the same measures were 100 to 1000 nM and less than 100 nM.
For `COc1cc(CN2CCN(C(=O)CN)CC2)ccc1Nc1ncc2ccc(-c3ccccc3N(C)S(C)(=O)=O)n2n1` [Example 1241, N-[2-(2-{4-[4-(2-Amino-acetyl)-piperazin-1-ylmethyl]-2-methoxy-phenylamino}-pyrrolo[2,1-f][1,2,4]triazin-7-yl)-phenyl]-N-methyl-methanesulfonamide], the IC50 in experiment [1] (setting [3]) was less than 100 nM; in experiment [2] (setting [4]) it was 1000 to 10000 nM.
For `COc1cc(C2CCN(C[C@@H](C)O)CC2)ccc1Nc1ncc2ccc(-c3ccccc3OC)n2n1` [Example 787, (R)-1-(4-{3-Methoxy-4-[7-(2-methoxy-phenyl)-pyrrolo[2,1-f][1,2,4]triazin-2-ylamino]-phenyl}-piperidin-1-yl)-propan-2-ol] the same measures were less than 100 nM and 100 to 1000 nM.
